Source: the supplement of paper PMC11061612

Legend:
Assay in all cases: Bliss excess, mean over the matrix (fraction); higher = more synergy
NCI-H2591 (Mesothelioma) = system: NCI-H2591 (Mesothelioma)
Procedure, shortened: (§1)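 Bliss excess equals the observed combination effect minus the expected value EA + EB − EA·EB, where EA and EB are the effects of each agent alone. Combination Emax is the second-highest inhibition within the matrix. Inhibition was scaled from CellTiter-Glo 2.0 luminescence, with 0 set by vehicle wells and 1 by blank wells, after 72 hours of two-drug dosing of cells plated in 1536-well plates.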

[1] = system: KARPAS-422 (B-Cell Non-Hodgkin's Lymphoma)
Procedure, shortened: as §1

[2] = system: A3-KAW (B-Cell Non-Hodgkin's Lymphoma)
Procedure, shortened: as §1

U-2-OS (Osteosarcoma) = system: U-2-OS (Osteosarcoma)
Procedure, shortened: as §1

FU97 (Gastric Carcinoma) = system: FU97 (Gastric Carcinoma)
Procedure, shortened: as §1

[3] = system: JSC-1 (B-Cell Non-Hodgkin's Lymphoma)
Procedure, shortened: as §1

Row | Compound | Bliss excess (NCI-H2591 (Mesothelioma)) | Bliss excess [1] | Bliss excess [2] | Bliss excess (U-2-OS (Osteosarcoma)) | Bliss excess (FU97 (Gastric Carcinoma)) | Bliss excess [3]
1 | CN(CCO)CC[C@H](CSc1ccccc1)Nc1ccc(S(=O)(=O)NC(=O)c2ccc(N3CCC([C@@H](O)c4ccccc4-c4ccc(Cl)cc4)CC3)cc2)cc1S(=O)(=O)C(F)(F)F [AZD4320] + C[C@@H]1COCCN1C2=NC(=NC(=C2)C3(CC3)[S@](=N)(=O)C)C4=C5C=CNC5=NC=C4 [AZD6738] (first compound max 1 µM, 7x7, partner max 10 µM) | -0.0462 | 0.0896 | -0.0229 | -0.0394 | -0.0215 | -0.0276
2 | CC1(C)CCC(CN2CCN(c3ccc(C(=O)NS(=O)(=O)c4ccc(NCC5CCOCC5)c([N+](=O)[O-])c4)c(Oc4cnc5[nH]ccc5c4)c3)CC2)=C(c2ccc(Cl)cc2)C1 [Venetoclax] + C[C@@H](Nc1cc(F)cc(F)c1)c1cc(C(=O)N(C)C)cc2c(=O)cc(N3CCOCC3)oc12 [AZD8186] (first compound max 1 µM, 7x7, partner max 3 µM) | -0.0378 | 0.0808 | -0.0047 | -0.0269 | -0.0019 | -0.0218
3 | CN(C)CCCOc1ccc(-c2ccc3ncc4c(c3c2)n(C2CCOCC2)c(=O)n4C)cn1 [AZD0156] + CCN(CCO)CCCOc1ccc2c(Nc3cc(CC(=O)Nc4cccc(F)c4)[nH]n3)ncnc2c1 [AZD2811] (first compound max 1 µM, 7x7, partner max 1 µM) | -0.0204 | 0.0004 | 0.121 | -0.0148 | -0.0947 | 0.0161
4 | CN(CCO)CC[C@H](CSc1ccccc1)Nc1ccc(S(=O)(=O)NC(=O)c2ccc(N3CCC([C@@H](O)c4ccccc4-c4ccc(Cl)cc4)CC3)cc2)cc1S(=O)(=O)C(F)(F)F [AZD4320] + C[C@@H](Nc1cc(F)cc(F)c1)c1cc(C(=O)N(C)C)cc2c(=O)cc(N3CCOCC3)oc12 [AZD8186] (first compound max 1 µM, 7x7, partner max 3 µM) | 0.0135 | 0.0234 | 0.0229 | 0.007 | 0.0471 | 0.0639
5 | Cc1cc2ncnn2cc1Nc1ncc2c(n1)n(C1CCOCC1)c(=O)n2C [AZD7648] + C[C@@H]1COCCN1C2=NC(=NC(=C2)C3(CC3)[S@](=N)(=O)C)C4=C5C=CNC5=NC=C4 [AZD6738] (first compound max 10 µM, 7x7, partner max 10 µM) | 0.04 | -0.0856 | -0.034 | 0.0173 | -0.0017 | 0.0038
6 | NC1(C(=O)N[C@@H](CCO)c2ccc(Cl)cc2)CCN(c2ncnc3[nH]ccc23)CC1 [Capivasertib] + COc1nnc2ccc(N3CCC(c4ccc(OCCN5CCN(C)C(=O)[C@H]5C)cc4)CC3)nn12 [AZD5153] (first compound max 10 µM, 7x7, partner max 1 µM) | 0.0183 | -0.0511 | -0.0363 | 0.0156 | -0.0154 | -0.0312
7 | NC1(C(=O)N[C@@H](CCO)c2ccc(Cl)cc2)CCN(c2ncnc3[nH]ccc23)CC1 [Capivasertib] + C[C@@H]1COCCN1C2=NC(=NC(=C2)C3(CC3)[S@](=N)(=O)C)C4=C5C=CNC5=NC=C4 [AZD6738] (first compound max 10 µM, 7x7, partner max 10 µM) | 0.0021 | -0.0575 | -0.0165 | -0.0326 | -0.0176 | 0.0036
8 | CN(CCO)CC[C@H](CSc1ccccc1)Nc1ccc(S(=O)(=O)NC(=O)c2ccc(N3CCC([C@@H](O)c4ccccc4-c4ccc(Cl)cc4)CC3)cc2)cc1S(=O)(=O)C(F)(F)F [AZD4320] + CCN(CCO)CCCOc1ccc2c(Nc3cc(CC(=O)Nc4cccc(F)c4)[nH]n3)ncnc2c1 [AZD2811] (first compound max 1 µM, 7x7, partner max 1 µM) | 0.0015 | 0.14 | 0.0628 | 0.0076 | -0.0531 | 0.0215
9 | CC1(C)CCC(CN2CCN(c3ccc(C(=O)NS(=O)(=O)c4ccc(NCC5CCOCC5)c([N+](=O)[O-])c4)c(Oc4cnc5[nH]ccc5c4)c3)CC2)=C(c2ccc(Cl)cc2)C1 [Venetoclax] + C1CN(CCC1(C(=O)N[C@@H](CCO)C2=CC=C(C=C2)Cl)N)C3=NC=NC4=C3C=CN4 [Capivasertib] (first compound max 1 µM, 7x7, partner max 3 µM) | -0.0453 | 0.0459 | -0.0468 | -0.0414 | -0.0295 | -0.0613
